This note sets out measurements from ChEMBL document CHEMBL1955850, “Syntheses of structurally-simplified and fluorescently-labeled neovibsanin derivatives and analysis of their neurite outgrowth activity in PC12 cells” (2012).

Active and inactive are the calls of the source. No cut-off for these calls is given here.

The subject of assay [1] is PC-12. In words: Neuritogenic activity in rat PC12 cells assessed as potentiation of 10 ng/ml NGF-induced neurite outgrowth at 10 uM after 4 days NGF (reference value: 75.89 um). The assay is classed as functional.
Assay [2] relates to PC-12. In words: Neuritogenic activity in rat PC12 cells assessed as potentiation of 10 ng/ml NGF-induced neurite outgrowth at 40 uM after 4 days (reference value: 75.89 um). It is filed as functional.
Assay [3] relates to PC-12. In words: Neuritogenic activity in rat PC12 cells assessed as potentiation of 20 ng/ml NGF-induced neurite outgrowth at 10 uM. The assay is classed as functional, cell-based.
Assay [4] has as its system PC-12. In words: Neuritogenic activity in rat PC12 cells assessed as potentiation of 10 ng/ml NGF-induced neurite outgrowth at 1 uM after 4 days (reference value: 75.89 um). The assay is classed as functional.
For assay [5], the system named is PC-12. The assay can be described thus: Neuritogenic activity in rat PC12 cells assessed as potentiation of 10 ng/ml NGF-induced neurite outgrowth at 40 uM after 96 hrs. The assay is classed as functional, cell-based.
The test system of assay [6] is PC-12. The assay can be described thus: Neuritogenic activity in rat PC12 cells assessed as appearance of short prominences at 40 uM after 48 hrs in presence of 10 ng/ml NGF. The assay is classed as functional, cell-based.
Assay [7] relates to PC-12. In words: Neuritogenic activity in rat PC12 cells assessed as change in cell morphology at 40 uM up to 24 hrs in presence of 10 ng/ml NGF. The assay is classed as functional, cell-based.
In assay [8] the test system is PC-12. The assay can be described thus: Neuritogenic activity in rat PC12 cells assessed as elongation of prominences at 40 uM after 72 hrs in presence of 10 ng/ml NGF. It is filed as functional, cell-based.

Regarding `CCCCO[C@]1(C)C[C@@H]2OCC3=CCCC[C@]32O1`, the Activity worked out at 55.82 um with PC-12 [1] and 72.88 um in the assay with PC-12 [2].
For `C=CCOC1(C)C[C@@H]2OCC3=CCCC[C@]32O1` (stereo partly drawn), the outcome with PC-12 [3] was inactive.
As for `CO[C@]1(C)C[C@@H]2OCC3=CCCC[C@]32O1`, the Activity in the assay on PC-12 [1] is 110.9 um; in the assay with PC-12 [4], 99.5 um; with PC-12 [2], 125.5 um. For the same compound, the result in the assay with PC-12 [3] was Active.
Regarding `CC(C)=CCOC1(C)C[C@@H]2OCC3=CCCC[C@]32O1` (stereo partly drawn), the outcome in the assay with PC-12 [3] was inactive.
On to `CCCCO[C@@]1(C)C[C@@H]2OCC3=CCCC[C@]32O1`, for which the figures for the Activity in the assay with PC-12 [1] and in the assay on PC-12 [2] were 47.69 um and 61.81 um, respectively.
On to `CC1(OC/C=C/c2ccccc2)C[C@@H]2OCC3=CCCC[C@]32O1` (stereo partly drawn), for which the outcome in the assay with PC-12 [3] was inactive.
Consider `CCO[C@]1(C)C[C@@H]2OCC3=CCCC[C@]32O1`, for which the Activity stood at 92.24 um in the assay with PC-12 [1] and 112.5 um in the assay on PC-12 [2].
Take `CCO[C@@]1(C)C[C@@H]2OCC3=CCCC[C@]32O1`: the Activity with PC-12 [1] amounted to 86.03 um; in the assay with PC-12 [2], 105.8 um.
For the compound `CCCO[C@@]1(C)C[C@@H]2OCC3=CCCC[C@]32O1`, the Activity in the assay with PC-12 [1] is recorded as 75.46 um; in the assay with PC-12 [2], 84.11 um.
`CCCO[C@]1(C)C[C@@H]2OCC3=CCCC[C@]32O1`: the Activity in the assay on PC-12 [1] is reported as 65.35 um; with PC-12 [2] it was 76.62 um.
As to `CO[C@@]1(C)C[C@@H]2OCC3=CCCC[C@]32O1`, the Activity with PC-12 [1] stood at 101.6 um; with PC-12 [4] it was 91.58 um; in the assay with PC-12 [2] it was 122.4 um. Also, the outcome in the assay on PC-12 [3] was Active.
With `COC1(C)C[C@@H]2OCC3=CCC[C@@H](CCOC(=O)Cc4cc(=O)oc5cc(N(C)C)ccc45)[C@]32O1` (stereo partly drawn), the result in the assay on PC-12 [5], with PC-12 [6] and in the assay with PC-12 [8] was Active. The result with PC-12 [7] was inactive.
With `CC1(OCc2ccccc2)C[C@@H]2OCC3=CCCC[C@]32O1` (stereo partly drawn), the outcome in the assay with PC-12 [3] was inactive.
